≈ marks a conversion by molar mass, not a printed value. Like-named read-outs stand apart in the source and are kept apart here.
Columns and labels:
[1] = test system: Candida albicans ATCC 11651; assay: In vivo systemic Candida infection in mice, primary assay; parameters: species or system Candida albicans; CF-1 female mice; conditions: Candida albicans, 150 mg/kg per day, read-out: % Survival
Method in brief: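 CF-1 female mice (20 g, 10 per group) were infected IV with 0.2 ml of 1×10^7/ml C. albicans ATCC 11651, then given test compound subcutaneously at 50 or 150 mg/kg/day at 1 and 6 h post-infection and once daily for three more days. Survival was followed for 21 days against infected untreated mice; ≥70% protection at 14 days was scored active.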

Venturia inaequalis = assay: Example A apple scab; type: in vivo; conditions: read-out: disease control rating, Ex. A
Method in brief: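 Apple seedlings receive a run-off spray of compound suspended at 100 or 20 ppm. The spray liquid is purified water holding 250 ppm TREM 014, a polyhydric alcohol ester surfactant, plus acetone at 6% of final volume as the solvent.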

[2] = test system: Cercosporidium personatum; assay: Example B Peanut Late Leafspot; type: in vivo; conditions: Nothopassalora personata, read-out: disease control rating, Ex. B
Method in brief: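 Each compound is first taken up in acetone, which makes up 6% of the final spray volume. It is then suspended in purified water with 250 ppm TREM 014 at 100 or 20 ppm. Seedlings of peanut are sprayed until run-off.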

Botrytis cinerea = assay: Example C bean grey mold; type: in vivo; conditions: Botrytis cinerea, 24 h, read-out: disease control rating, Ex. C
Method in brief: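 Compound is first dissolved in acetone, the acetone making up 6% of the final volume. The solution is then suspended in purified water with 250 ppm of the polyhydric alcohol ester surfactant TREM 014 to give 100 or 20 ppm. Seedlings of broad bean receive this spray until liquid runs off.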

[3] = test system: Erysiphe graminis f. sp. tritici; assay: Example D wheat powdery mildew; type: in vivo; conditions: Blumeria graminis, 144 h, read-out: disease control rating, Ex. D
Method in brief: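 Wheat seedlings receive a run-off foliar spray of compound suspended in purified water at 100 or 20 ppm. The carrier holds 250 ppm TREM 014 plus acetone amounting to 6% of final volume.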

Pyricularia oryzae = assay: whole plant or invertebrate; type: in vivo; conditions: Pyricularia oryzae, 120 h; for pest or weed control at 100 ppm: read-out: disease control rating, Ex. E, 100 PPM
Rhizoctonia solani [4] = assay: Example F rice sheath blight; type: in vivo; conditions: Rhizoctonia solani, 144 h, read-out: disease control rating, Ex. F
Method in brief: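 Rice seedlings receive a run-off spray of compound suspended at 100 or 20 ppm. The carrier is purified water containing 250 ppm of a polyhydric alcohol ester surfactant, with acetone making up 6% of the final volume.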

Puccinia recondita = assay: Example G wheat leaf rust; type: in vivo; conditions: read-out: disease control rating, Ex. G
Phytophthora infestans = assay: whole plant or invertebrate; type: in vivo; conditions: Phytophthora infestans, in Solanum lycopersicum, read-out: disease control rating, Ex. H, 100 PPM
Plasmorpara viticola = assay: Example I grape downy mildew; type: in vivo; conditions: read-out: disease control rating, Ex. I
Method in brief: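 Applied as a foliar spray to run-off on grape seedlings, the compounds were formulated at 100 or 20 ppm in water containing 250 ppm TREM 014, with acetone making up 6% of the volume.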

Pythium aphanadermatum = assay: Example J cucumber damping off; type: in vivo; conditions: Pythium, 336 h; 5 kg/ha; read-out: disease control rating, Ex. J
Method in brief: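 This cucumber damping-off test used soil and seeds infested with a sand–cereal preparation carrying mycelium of Pythium aphanadermatum. Incubation took place in a growth chamber held at 30° C. for 14 days. Afterwards, the extent of disease was scored as a disease control rating.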

Rhizoctonia solani [5] = assay: Example K cotton blight; type: in vivo; conditions: 336 h, 5 kg/ha, read-out: disease control rating, Ex. K
Description: […] Seeds and soil were then inoculated with a mixture of sand, cereal and mycelium of the fungus Rhizoctonia solani, causal agent of cotton blight, and incubated in a growth chamber at 30° C. for 14 days. Disease ratings were then made.

[6] = test system: Fusarium oxysporum f. sp. cucumerinum; assay: Example L cucumber wilt; type: in vivo; conditions: 336 h, 5 kg/ha, read-out: disease control rating, Ex. L
Description: […] Seeds and soil were then inoculated with a mixture of sand, cereal and mycelium of the fungus Fusarium oxysporum f. sp. cucumerinum, causal agent of cucumber wilt, and incubated in a growth chamber at 30° C. for 14 days. Disease ratings were then made.

Sclerotium rolfsii = assay: Example M southern blight; type: in vivo; conditions: Agroathelia rolfsii, 336 h; 5 kg/ha; read-out: disease control rating, Ex. M
Description: […] Seeds and soil were then inoculated with a mixture of sand, cereal and mycelium of the fungus Sclerotium rolfsii, causal agent of sourthern blight, and incubated in a growth chamber at 30° C. for 14 days. Disease ratings were then made.

[7] = test system: Candida albicans ATCC 11651; assay: In vitro antifungal MIC, microtiter broth dilution; conditions: Candida albicans, ATCC11651, 24 h, read-out: MIC values, C. albicans, 30°, 24 hours
[8] = test system: Aspergillus fumigatus ATCC 28214; assay: In vitro antifungal MIC, microtiter broth dilution; conditions: Aspergillus fumigatus, ATCC28214, 24 h, read-out: MIC values, A. fumigatus, 30°, 24 hours
Description: In vitro activity (Table 5) is expressed in terms of the minimal inhibitory concentration (MIC) of the test compound which inhibits the growth of yeasts and fungi.
The target organisms, Candida albicans ATCC 11651 and Aspergillus fumigatus ATCC 28214 are standardized, [V. Bezjak, J. Clinical Micro., 21 509-512 (1984)], to a concentration of 10^7 organisms/ml and maintained at -70° until use. Test compounds are solubilized in dimethyl sulfoxide (DMSO) and diluted in Eagle's Minimum Essential Medium (EMEM) broth to achieve a final concentration of 200 μg/ml. Stock solutions of standard antifungal agents are stored at -70° and diluted in EMEM as required.
The in vitro assay utilizes a microtiter broth dilution technique [L. Polonelli and G. Morace, Mycopathologia, 86, 21-28 (1984)] and C. […] The appropriate wells are inoculated with the required organism (C. albicans at 1×10^4 organisms/ml and A. fumigatus at 5×10^5 organisms/ml) and the assay incubated at 30° for 24 hours.

Row | Compound | responders at 150 mg/kg ([1]; ATCC11651, 168 h, day 7) [%] | responders at 150 mg/kg ([1]; ATCC11651, 336 h, day 14) [%] | responders at 150 mg/kg ([1]; ATCC11651, 504 h, day 21) [%] | pest or weed control at 100 ppm (Venturia inaequalis) [%] | pest or weed control at 100 ppm [2] [%] | pest or weed control at 100 ppm (Botrytis cinerea) [%] | pest or weed control at 100 ppm [3] [%] | pest or weed control at 100 ppm (Pyricularia oryzae) [%] | pest or weed control at 100 ppm (Rhizoctonia solani [4]) [%] | pest or weed control at 100 ppm (Puccinia recondita) [%] | pest or weed control at 100 ppm (Phytophthora infestans) [%] | pest or weed control at 100 ppm (Plasmorpara viticola) [%] | pest or weed control at 5000 g/ha (Pythium aphanadermatum) [%] | pest or weed control at 5000 g/ha (Rhizoctonia solani [5]) [%] | pest or weed control at 5000 g/ha [6] [%] | pest or weed control at 5000 g/ha (Sclerotium rolfsii) [%] | MIC [7] [µg/mL] | MIC [8] [µg/mL] | also measured
1 | C=C(c1ccccc1Cl)C(O)(Cn1cncn1)c1ccc(Cl)cc1 (stereo not shown) [Example 34] | 100 | 100 | 100 | 69 | 100 | 94 | 60 | 86 | 16 | 66 | 0 | 0 | 0 | 0 | 0 | 0 | 0.03 (≈ 0.0833 µM) | 3.2 (≈ 8.88 µM) | 
2 | C=C(c1ccc(F)cc1)C(O)(Cn1cncn1)c1ccc(-c2ccccc2)cc1 (stereo not shown) [Example 657] | 0 | 0 | 0 | 62 | 100 | 81 | 98 | 49 | 97 | 100 | 24 | 37 | 0 | 0 | 0 | 0 | 0.4 (≈ 1.04 µM) | 100 (≈ 259 µM) | 
3 | C=C(c1ccc(Cl)cc1)C(O)(Cn1cncn1)c1ccc(F)cc1F (stereo not shown) [Example 28, 2-(2,4-Difluorophenyl)-3-(4-chlorophenyl)-1-(1H-1,2,4-triazol-1-yl)-3-buten-2-ol] | 100 | 90 |  | 89 | 100 | 88 | 98 | 81 | 100 | 100 | 0 | 6 | 0 | 0 | 0 | 0 | 0.03 (≈ 0.0829 µM) | 1.6 (≈ 4.42 µM) | 
4 | C=C(c1ccc(OC)cc1)C(O)(Cn1cncn1)c1ccc(F)cc1 (stereo not shown) [Example 726] | 100 | 80 | 10 |  |  |  |  | 0 | 0 |  | 0 | 38 | 0 | 20 | 0 | 0 | 0.8 (≈ 2.36 µM) | 6.3 (≈ 18.6 µM) | pest or weed control at 20 ppm (Venturia inaequalis; 20 PPM): 75%; pest or weed control at 20 ppm ([2]; 20 PPM): 0%; pest or weed control at 20 ppm (Botrytis cinerea; 20 PPM): 23%; pest or weed control at 20 ppm ([3]; 20 PPM): 81%; pest or weed control at 20 ppm (Pyricularia oryzae; read-out: disease control rating, Ex. E, 20 PPM): 0%; pest or weed control at 20 ppm (Rhizoctonia solani [4]; 20 PPM): 0%; pest or weed control at 20 ppm (Puccinia recondita; 20 PPM): 100%

— US4965280A, “Antifungal carbinols” (E. I. Du Pont de Nemours and Company, priority 1989, dated 1990)
